Source: US6710066B2, “Photochemotherapeutic method using 5-aminolevulinic acid and other precursors of endogenous porphyrins” (priority 1989, dated 2004)

Columns and labels:
[1] = system: P. yoelii; assay: ALA-induced fluorescence within erythrocytes parasitized by P. yoelii, mice given ALA; conditions: ALA injected into infected mice
[2] = very large doses; cited from earlier work
[3] = following intravenous injection; occasionally more than two months; cited from earlier work

Row | Compound | PpIX accumulation in non-infected erythrocytes and leukocytes [1] | PpIX accumulation in plasmodia within erythrocytes [1] | effect on motor nerve conduction velocity [2] | persistence of photosensitizing amount of porphyrin in the skin [3]
1 | NCC(=O)CCC(=O)O [5-aminolevulinic acid (ALA)] | no such accumulation of protoporphyrin | accumulation of fluorescing and photosensitizing concentrations of protoporphyrin within metabolically active parasites |  | 
2 | CC1=C(CCC(=O)O)c2cc3[nH]c(cc4nc(cc5[nH]c(cc1n2)c(C)c5C(C)O)C(C)=C4C(C)O)c(C)c3CCC(=O)O (stereo not shown) [HpIX, Hematoporphyrin IX, reference compound] |  |  | transient decrease in motor nerve conduction velocity | at least two weeks
